Results on 1 molecule are retold here after patent US20140301947A1, “METHODS TO PREDICT BINDING AFFINITY OF TSPO IMAGING AGENTS TO TSPO” (IMPERIAL INNOVATIONS LIMITED, priority 2011, published 2014).

Experiment [1] addresses T1, TSPO (Homo sapiens, UniProt P30536). Put plainly: Competition binding assay with [3H]PK11195 and unlabelled vinpocetine in human brain membranes. On the set-up: Ki MAB; Vinpocetine Ki, MAB. The conditions noted are these: A/T subjects, mixed affinity binder, human brain, mean (SEM), read-out: Vinpocetine Ki, MAB. As for the experimental part: (§1) Tissue was obtained from the UK Multiple Sclerosis (MS) Tissue Bank at Imperial College. All tissue blocks obtained included only “normal appearing” tissue, without immunohistochemical evidence of demyelination or significant inflammatory infiltrate. The tissue was stored at −80° C. until use. Tissue blocks from 15 donors (5 each from HAB, MAB and LAB donors) were used. The binding affinity classification for each tissue block had been established previously using PBR28 (Owen et al. 2010).
(§2) Tissue blocks were homogenised in 10 times weight for volume (w/v) buffer ([…], 5 mM Tris base, 1 mM MgCl2, pH 7.4, 4° C.). […]
(§3) Following incubation, assays were terminated via filtration through Whatman GF/B filters, followed by 3×1 ml washes with ice-cold wash buffer (50 mM Tris Base, 1.4 mM MgCl2, pH 7.4, 4° C.). […] Scintillation fluid (4 ml/vial, Perkin Elmer Ultima Gold MV) was added and vials counted on a Perkin Elmer Tricarb 2900 liquid scintillation counter. […] Ki (nM) values were determined using GraphPad Prism 5.0 software (GraphPad Software Inc, USA).
(§4) Protein concentrations (μg protein/ml) were determined using the Bicinchoninic acid assay (BCA Kit, Sigma-Aldrich, UK) and absorption read at 562 nm.
(§5) Data were analysed using the iterative non-linear regression curve fitting software supplied with GraphPad Prism 5.0. […] Data are expressed as the mean (standard error of the mean). […]

Experiment [2] concerns the target T1, TSPO. Conditions: high affinity interaction (<100 nM) excluded; not formally measured; cited from earlier work.
Experiment [3] concerns the target T2, TSPO (Rattus norvegicus, UniProt P16257).
T2 construct: 200 nM in the rat heart (Gulyas et al. 2005); host or cells: rat heart
The conditions noted are these: rat heart; cited from earlier work.

The subject of experiment [4] is sodium channels, calcium channels, phosphodiesterases or NF-κB. Conditions: cited from earlier work.
For experiment [5], the target named is TSPO. Description: Competition binding assay with [3H]PK11195 and unlabelled vinpocetine in human brain membranes. Conditions: average of HAB and LAB means; read-out: mean Ki value of HABs and LABs. As for the experimental part: as §1, §2, §3, §4, §5
For experiment [6], the target named is TSPO (Homo sapiens, UniProt P30536, T147A). Described as above. Details: from tissue; host or cells: human brain (membrane preparation, by the cited method). The conditions noted are these: A/A subjects, high affinity binder, human brain, mean (SEM); read-out: Vinpocetine Ki, HAB. As for the experimental part:
as §1, §2, §3, §4, §5

Where two headings read alike, the source gives them in different places.

TSPO (Homo sapiens, UniProt P30536, T147A), sequence (P30536 2-169 T147A): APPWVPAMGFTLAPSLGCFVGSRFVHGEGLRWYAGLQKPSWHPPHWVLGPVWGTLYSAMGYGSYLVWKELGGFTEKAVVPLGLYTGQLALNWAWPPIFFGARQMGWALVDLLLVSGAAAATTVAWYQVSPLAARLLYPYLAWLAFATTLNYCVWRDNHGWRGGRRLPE
T1 sequence (P30536 whole entry): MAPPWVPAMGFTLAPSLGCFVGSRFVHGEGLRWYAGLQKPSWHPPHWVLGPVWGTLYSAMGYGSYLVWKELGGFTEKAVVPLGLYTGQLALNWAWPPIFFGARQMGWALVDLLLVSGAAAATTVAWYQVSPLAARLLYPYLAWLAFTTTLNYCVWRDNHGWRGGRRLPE

The Ki is the equilibrium dissociation constant of an inhibitor or competing ligand from its target. With `CCOC(=O)C1=C[C@]2(CC)CCCN3CCc4c(n1c1ccccc41)[C@@H]32` [Vinpocetine, ethyl apovincaminate], the Ki on TSPO [1] (listed as vinpocetine) was 332 nM; at TSPO [1] it was 332 nM; at TSPO [5], 443 nM; at TSPO [6], 777 nM. Also, the “binding affinity for the TSPO in humans” value at TSPO [2] is at least 100 nM. Also, the reported binding affinity on TSPO [3] is listed as 200 nM. The “concentrations required for these effects” value in experiment [4] (phosphodiesterase inhibition, blockade of sodium and calcium channels) was 1 to 44 µM. Besides, the “affinity for these targets (Ki)” value in experiment [4] (sodium channels, calcium channels, phosphodiesterases or NF-κB) was “Ki in the uM range”.
